# Measurements taken from patent US4440933A, “Process for preparing 1,2,5-thiadiazoles” (Bristol-Myers Company, priority 1983, dated 1984).
# Like-named read-outs stand apart in the source and are kept apart here.
# Experiments:
# gastric acid secretion = assay: Gastric antisecretory activity in the gastric fistula rat; type: in vivo, rat (male Long Evans); settings: sc, read-out: ED50 sc
# histamine H2-receptor = biological target: T1, histamine H2-receptor (Cavia porcellus, UniProt P47747); settings: Black et al., Nature, 236, 385 (1972); cited from earlier work
# T1 construct: The spontaneously beating right atrium was dissected free from other tissues; from tissue; host or cells: isolated spontaneously beating right atrium of male Hartley strain guinea pigs
# peptic ulcer disease = settings: clinical evaluation, Gray et al., Lancet, 1, 8001 (1977); cited from earlier work
# T1 sequence (P47747 whole entry): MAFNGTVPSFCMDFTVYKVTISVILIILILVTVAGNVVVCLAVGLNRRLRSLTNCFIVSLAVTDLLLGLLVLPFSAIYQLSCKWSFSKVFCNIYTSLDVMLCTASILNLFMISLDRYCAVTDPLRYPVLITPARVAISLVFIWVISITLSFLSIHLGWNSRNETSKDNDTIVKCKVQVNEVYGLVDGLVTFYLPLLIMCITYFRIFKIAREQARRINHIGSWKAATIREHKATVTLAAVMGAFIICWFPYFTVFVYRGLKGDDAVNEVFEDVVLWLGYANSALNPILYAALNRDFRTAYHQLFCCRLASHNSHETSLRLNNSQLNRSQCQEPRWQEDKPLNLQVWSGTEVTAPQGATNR
SMILES,ED50 (gastric acid secretion; gastric fistula rat) [µmol/kg],also measured
"CN(C)Cc1ccc(CSCCNc2nsnc2N)o1 [Example 10, 3-amino-4-{2-[(5-dimethylaminomethyl-2-furyl)-methylthio]ethylamino}-1,2,5-thiadiazole]",0.77,
CNC(=S)NCCCCc1cnc[nH]1 [burimamide],,type of antagonism at histamine H2-receptors (histamine H2-receptor): competitive antagonist
"CN/C(=N/CCSCc1nc[nH]c1C)NC#N [cimetidine, reference compound]",,therapeutic effect in treatment of peptic ulcer disease (peptic ulcer disease): effective therapeutic agent in the treatment of peptic ulcer disease; ED50 (gastric acid secretion; Rattus norvegicus): 3.48 µmol/kg
"Nc1nsnc1NCCCOc1cccc(CN2CCCCC2)c1 [Example 3, 3-Amino-4-[3-(3-piperidinomethylphenoxy)propylamino]-1,2,5-thiadiazole]",0.094,
"Cc1cc(CSCCNc2nsnc2N)sc1CN(C)C [Example 11, 3-Amino-4-{2-[(5-dimethylaminomethyl-4-methyl-2-thienyl)methylthio]ethylamino}-1,2,5-thiadiazole]",~0.5,
"Nc1nsnc1NCCCOc1cccc(CN2CCCC2)c1 [Example 4, 3-Amino-4-[3-(3-pyrrolidinomethylphenoxy)propylamino]-1,2,5-thiadiazole]",0.18,
